The values that follow come from US20080167330A1, “Carbamoylsulphoximides as protein kinase inhibitors” (priority 2006, published 2008).

Assay type in all cases: biochemical
The target of one assay is T1, CDK1/CycB (Homo sapiens, UniProt P06493).
T1 construct: GST; purchased ProQinase GmbH, Freiburg; host or cells: baculovirus-infected insect cells (Sf9)
The assay is described as follows: CDK1/CycB kinase assay. The conditions noted are these: 0.5 μM ATP. On the procedure: Recombinant CDK1- and CycB-GST fusion proteins, purified from baculovirus-infected insect cells (Sf9), were purchased from ProQinase GmbH, Freiburg. The histone IIIS used as kinase substrate can be purchased from Sigma.
CDK1/CycB (5 ng/μL) was incubated in the presence of various concentrations of test substances (0 μM, and within the range 0.01-100 μM) in 40 μL of assay buffer [50 mM Tris/HCl pH 8.0, 10 mM MgCl2, 0.1 mM Na ortho-vanadate, 1.0 mM dithiothreitol, 0.025% PEG 20000, 0.5 μM ATP, 10 μM histone IIIS, 0.2 μCi/measurement point ^33P-gamma ATP, 0.05% NP40, 1.25% dimethyl sulphoxide] at 22° C. for 10 min. The reaction was stopped by adding EDTA solution (250 mM, pH 8.0, 15 μl/measurement point). 15 μl of each reaction mixture were loaded onto P30 filter strips (from Wallac), and non-incorporated ^33P-ATP was removed by washing the filter strips three times in 0.5% strength phosphoric acid for 10 min each time. After the filter strips had been dried at 70° C. for 1 hour, the filter strips were covered with scintillator strips (MeltiLex™ A, from Wallac) and baked at 90° C. for 1 hour. The amount of incorporated ^33P (substrate phosphorylation) was determined by scintillation measurement in a gamma radiation counter (Wallac).
(§1) The measured data were normalized to 0% inhibition (enzyme reaction without inhibitor) and 100% inhibition (all assay components except enzyme). The IC50 values were determined by means of a 4-parameter fit using the company's own software.

Another assay deals with T2, human Aurora-C (Homo sapiens, UniProt Q9UQB9).
T2 construct: GST; made in house; host or cells: transiently transfected HEK293 cells
T2 sequence (Q9UQB9 1-309): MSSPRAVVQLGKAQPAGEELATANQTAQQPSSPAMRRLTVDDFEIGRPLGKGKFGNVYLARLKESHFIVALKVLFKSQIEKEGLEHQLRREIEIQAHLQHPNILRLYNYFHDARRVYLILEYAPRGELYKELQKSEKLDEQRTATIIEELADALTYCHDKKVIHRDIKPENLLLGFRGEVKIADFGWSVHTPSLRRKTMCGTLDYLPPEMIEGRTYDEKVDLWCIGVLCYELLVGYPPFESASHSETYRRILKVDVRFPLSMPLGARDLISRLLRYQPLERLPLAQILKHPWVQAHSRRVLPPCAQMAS
As to the kind of experiment: Aurora-C kinase assay (HTRF). Conditions: 10 μM ATP. On the procedure:
The Aurora-C inhibitory activity of the substances of this invention was measured in the Aurora-C-HTRF assay (HTRF=Homogeneous Time Resolved Fluorescence) described in the following paragraphs.
Recombinant fusion protein of GST and human Aurora-C was expressed in transiently transfected HEK293 cells and purified by affinity chromatography on glutathione-Sepharose. The substrate used for the kinase reaction was the biotinylated peptide biotin-Ttds-FMRLRRLSTKYRT (C terminus in amide form) which can be purchased for example from JERINI Peptide Technologies (Berlin). Aurora-C was incubated in the presence of various concentrations of test substances in 5 μL of assay buffer [25 mM Hepes/NaOH pH 7.4, 0.5 mM MnCl2, 2.0 mM dithiothreitol, 0.1 mM sodium orthovanadate, 10 μM adenosine triphosphate (ATP), […] substrate, 0.01% (v/v) TritonX-100 (Sigma), 0.05% (w/v) bovine serum albumin (BSA), 1% (v/v) dimethyl sulphoxide] at 22° C. for 60 min. The concentration of Aurora-C was adapted to the particular activity of the enzyme and adjusted so that the assay operated in the linear range. Typical concentrations were in the region of 0.3 nM. The reaction was stopped by adding 5 μl of a solution of HTRF detection reagents (0.2 μM streptavidin-XLent and 1.4 nM anti-phospho-(Ser/Thr)-Akt substrate-Eu-cryptate (Cis biointernational, France, product No. 61P02KAE), a Europium-cryptate-labelled phospho-(Ser/Thr)-Akt substrate antibody [product #9611B, Cell Signaling Technology, Danvers, Mass., USA]) in aqueous EDTA solution (40 mM EDTA, 400 mM KF, 0.05% (w/v) bovine serum albumin (BSA) in 25 mM HEPES/NaOH pH 7.0).
The resulting mixture was incubated at 22° C. for 1 h in order to allow formation of a complex of the biotinylated phosphorylated substrate and the detection reagents. The amount of phosphorylated substrate was then estimated by measuring the resonance energy transfer from the anti-phospho-(Ser/Thr)-Akt substrate-Eu cryptate to the streptavidin-XLent. For this purpose, the fluorescence emissions at 620 nm and 665 nm after excitation at 350 nm were measured in an HTRF measuring instrument, e.g. a Rubystar (BMG Labtechnologies, Offenburg, Germany) or a Viewlux (Perkin-Elmer). The ratio of the emissions at 665 nm and at 622 nm was taken as a measure of the amount of phosphorylated substrate. The data were normalized (enzymic reaction without inhibitor=0% inhibition, all other assay components but no enzyme=100% inhibition) and IC50 values were calculated with a 4-parameter fit using an inhouse software.

In a further assay the target is T3, KDR (VEGFR2) (Homo sapiens, UniProt P35968).
T3 construct: GST; purchased ProQinase GmbH, Freiburg; host or cells: baculovirus-infected insect cells (Sf9)
T3 sequence (P35968 807-1356 limits assumed): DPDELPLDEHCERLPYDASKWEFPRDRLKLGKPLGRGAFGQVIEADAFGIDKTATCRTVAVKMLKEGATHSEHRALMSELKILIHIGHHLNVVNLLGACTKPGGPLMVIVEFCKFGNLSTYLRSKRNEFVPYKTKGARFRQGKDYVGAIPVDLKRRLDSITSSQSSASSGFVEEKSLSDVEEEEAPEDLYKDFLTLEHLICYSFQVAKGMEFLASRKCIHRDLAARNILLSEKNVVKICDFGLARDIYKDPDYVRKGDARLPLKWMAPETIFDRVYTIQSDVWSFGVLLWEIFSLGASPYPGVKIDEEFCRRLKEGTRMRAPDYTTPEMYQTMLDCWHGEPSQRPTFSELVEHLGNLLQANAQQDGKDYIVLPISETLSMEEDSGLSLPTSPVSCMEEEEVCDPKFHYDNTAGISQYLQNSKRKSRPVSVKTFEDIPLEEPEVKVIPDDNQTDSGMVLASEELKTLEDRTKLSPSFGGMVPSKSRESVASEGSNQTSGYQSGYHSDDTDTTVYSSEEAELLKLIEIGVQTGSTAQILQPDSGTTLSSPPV
The assay is described as follows: KDR kinase assay. Conditions: 8 μM ATP. The method, then:
Recombinant KDR kinase-GST fusion proteins purified from baculovirus-infected insect cells (Sf9), were purchased from ProQinase GmbH, Freiburg. Poly(Glu4Tyr)n, which was used as kinase substrate, was purchased from Sigma.
KDR kinase was incubated in the presence of various concentrations of test substances (0 μM, and within the range 0.01-100 μM) in 40 μL of assay buffer [40 mM Tris/HCl pH 7.5, 10 mM MgCl2, 1 mM MnCl2, 1.0 mM dithiothreitol, 8 μM ATP, 0.025% PEG20000, 24 ng/μL poly(Glu4Tyr)n, 0.2 μCi/measurement point ^33P-gamma ATP, 1.25% dimethyl sulphoxide] at 22° C. for 10 min. The reaction was stopped by adding EDTA solution (250 mM, pH 7.5, 15 μl/measurement point). 15 μl of each reaction mixture were loaded onto P30 filter strips (from Wallac), and non-incorporated ^33P-ATP was removed by washing the filter strips three times in 0.5% strength phosphoric acid for 10 min each time.
(§2) After the filter strips had been dried at 70° C. for 1 hour, the filter strips were covered with scintillator strips (MeltiLex™ A, from Wallac) and baked at 90° C. for 1 hour. The amount of incorporated ^33P (substrate phosphorylation) was determined by scintillation measurement in a gamma radiation counter (Wallac).
as §1

Assay [1] relates to Aurora C, CDK1/CycB, CDK2/CycE, KDR (VEGFR2). As to the kind of experiment: various kinase assays taken together (selectivity profile). Conditions: comparison across the kinase assays, in words. The method, then: The compounds of Examples 1 to 22 were tested for their inhibitory effect in the various kinase assays and in a proliferation assay with MCF7 human breast tumour cells (Tab. 1). […] Exemplary compounds 1-8, 10-12, 15, 17-20 inhibit the proliferation of human MCF7 breast tumour cells with half-maximum concentrations in the submicromolar range.

A further assay has as its target T4, CDK2/CycE (Homo sapiens, UniProt P24941).
T4 construct: GST; purchased ProQinase GmbH, Freiburg; host or cells: baculovirus-infected insect cells (Sf9)
The assay is described as follows: CDK2/CycE kinase assay. The conditions noted are these: 0.5 μM ATP. The method, then: Recombinant CDK2- and CycE-GST fusion proteins, purified from baculovirus-infected insect cells (Sf9), were purchased from ProQinase GmbH, Freiburg. The histone IIIS used as kinase substrate was purchased from Sigma. CDK2/CycE (1.25 ng/μL) was incubated in the presence of various concentrations of test substances (0 μM, and within the range 0.01-100 μM) in 40 μL of assay buffer [50 mM Tris/HCl pH 8.0, 10 mM MgCl2, 0.1 mM Na ortho-vanadate, 1.0 mM dithiothreitol, 0.5 μM ATP, 0.2% PEG20000, 10 μM histone IIIS, 0.2 μCi/measurement point ^33P-gamma ATP, 0.05% NP40, 1.25% dimethyl sulphoxide] at 22° C. for 10 min. The reaction was stopped by adding EDTA solution (250 mM, pH 8.0, 15 μl/measurement point).
15 μl of each reaction mixture were loaded onto P30 filter strips (from Wallac), and non-incorporated ^33P-ATP was removed by washing the filter strips three times in 0.5% strength phosphoric acid for 10 min each time.
as §2, §1

T1 sequence (P06493 whole entry): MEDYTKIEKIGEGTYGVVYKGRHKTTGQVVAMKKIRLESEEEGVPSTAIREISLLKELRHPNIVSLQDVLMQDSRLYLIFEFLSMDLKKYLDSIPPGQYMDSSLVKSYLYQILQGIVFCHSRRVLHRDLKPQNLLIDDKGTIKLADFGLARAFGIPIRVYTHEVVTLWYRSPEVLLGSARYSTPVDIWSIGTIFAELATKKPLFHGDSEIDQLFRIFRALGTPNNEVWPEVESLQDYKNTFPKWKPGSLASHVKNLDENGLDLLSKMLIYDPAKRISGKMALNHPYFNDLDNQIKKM
T1 sequence (P14635 whole entry partner): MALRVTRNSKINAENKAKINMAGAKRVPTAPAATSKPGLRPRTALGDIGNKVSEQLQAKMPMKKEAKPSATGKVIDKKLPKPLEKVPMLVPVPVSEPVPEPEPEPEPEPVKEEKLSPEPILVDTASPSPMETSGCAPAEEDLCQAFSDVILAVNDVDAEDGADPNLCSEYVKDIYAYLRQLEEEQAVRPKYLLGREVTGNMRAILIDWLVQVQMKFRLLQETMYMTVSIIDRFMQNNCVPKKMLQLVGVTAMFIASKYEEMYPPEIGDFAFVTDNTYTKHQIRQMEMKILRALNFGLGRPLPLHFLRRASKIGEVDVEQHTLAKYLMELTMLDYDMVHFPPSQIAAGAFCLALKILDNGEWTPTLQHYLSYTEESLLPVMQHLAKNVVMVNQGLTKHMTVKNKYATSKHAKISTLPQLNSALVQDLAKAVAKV

For the compound `Cc1c(NC(=O)N=S(C)(C)=O)cccc1Nc1ncc(Br)c(N[C@H](C)[C@@H](C)O)n1` [Example 9, N-({3-[(5-Bromo-4-{[(1R,2R)-2-hydroxy-1-methylpropyl]amino}pyrimidin-2-yl)amino]-2-methylphenyl)carbamoyl)-S,S-dimethylsulphoximide], the IC50 was 180 nM at CDK1/CycB, 20000 nM against human Aurora-C, over 1000 nM against KDR (VEGFR2) and 43 nM on CDK2/CycE. The selectivity profile result in assay [1] was “CDK-selective”.
